# Source: patent US20120283327A1, “PHARMACEUTICAL COMPOSITIONS AND THERAPEUTIC APPLICATIONS OF A HYDROCORTISONE DERIVATIVE DESIGNATED AS DEINA” (priority 2009, published 2012)
# Columns and labels:
# [1] = test system: bioptic animal samples (skin, chondrocyte, mucosal and follicular vitality); test: Optical microscopy of cultured biopsies: cytokeratin 10 and 11 expression and haematoxylin/eosin histology; format: cell-based
# Experimental: The bioptic animal samples in the investigation comprised biopsies of: • chronic atrophic cutaneous lesions due to venous stasis (base and margins), • damaged joint cartilage (chronic degenerative osteo-articular arthritis), • terminal cicatricial scalp (post-traumatic or surgical lesions), • hyperkeratosis of the oral cavity (vitamin B deficiency).
# All the samples were washed three times with physiological saline and antibiotics (100 units/ml of penicillin+100 μg/ml of streptomycin+160 mg/L gentamycin, fluconazole 0.2 mg/ml) for 10 minutes at ambient temperature.
# The biopsies were then sectioned into three parts (two controls, 1 and 2, and one sample, 3, to be treated for each patient) and suspended in a final volume of 25 ml of the corresponding culture solutions within 10 cm slides (Lab-Tek chamber slides, Nunc, Kamstrup, Denmark).
# Two types of controls were prepared, an untreated negative control (1), that is one treated with physiological saline and antibiotics only (as described above), and a positive control (2) treated with media for ordinary cell culture for skin biopsies.
# 2. Positive control: Controlled bioptic specimens 2 were placed between 10 cm slides (Lab-Tek chamber slides, Nunc, Kamstrup, Denmark) in D-MEM medium supplemented with:
# 3. Samples-1 and -2. Bioptic samples 1 and 2 were placed between 10 cm slides (Lab-Tek chamber slides, Nunc, Kamstrup, Denmark) in medium in a solution of Deina® culture medium (double test). […]
# Results relating to the expression of cytokeratin 10 and 11 and histological staining of the bioptic preparations with haematoxylin/eosin (used to display skin, chondrocyte, mucosal and follicular vitality) are shown in Table 6 (CONTROLS) and Table 7 (SAMPLES), and have been expressed using a qualitative and semi-quantitative scale. […]
# Samples belonging to the type of the Sample treatment group (Deina®). Median semi-quantitative values for incubation days 7 and 60.
# bilateral joint changes = format: in vivo
# Experimental: A clinical trial to evaluate tolerance and efficacy for the compound known as infusional Deina® (composition shown in Table 3) was also performed on a compassionate basis.
# Twenty cases (dogs of different breed, size, body weight, sex and age).
# The quantity of solution inoculated was equal to the quantity of synovial fluid aspirated and analysed.
# a. Time Zero • Collection of case history and clinical examination comprising full blood counts, including LACTATES to check metabolic oxidation, • Radiography of the limb in question, • ROM (Range Of Motion), • Exploratory arthroscopy, • Exclusion of any intra-articular curettage, • Arthrocentesis with removal and morphological/cytological and biochemical examination of the synovial fluid, • Histological examination of a sample of joint cartilage, • Intra-articular inoculation of the solutions tested equal to the quantity of synovial fluid withdrawn and always in the same way (bilateral lesions): of Deina®.
# A synovial examination and intra-articular injection of the solution was repeated weekly or for four/eight times, depending on the severity of the initial pathological condition.
# b. End of the Treatment Cycle • Arthrocentesis with removal and morphological/cytological and biochemical examination of the synovial fluid, • Histological examination of a sample of joint cartilage, • Radiography of the joint in question, • ROM (Range Of Motion), • Blood lactic acid content, • Clinical examination and recording.
# [2] = Deina infusional formulation, intra-articular, weekly four/eight times, 20 dogs
smiles,measurement,setting,value
"CC1(CCC(=O)O)C(=O)CCC2C1C(O)CC1(C)C2CCC1(O)C(=O)CO (stereo not drawn) [Deina®, 3-[3,5-Dihydroxy-3-(2-hydroxy-acetyl)-3a,6-dimethyl-7-oxo-dodecahydro-cyclo-penta[alpha]naphthalen-6-yl]-propionic acid]",cytokeratin 10 and 11 (typical of normal tegument and scalp tissues with vital follicles),"[1]; optical microscopy, Table 7 summary",net predominance
same,number of cells (staining with eosin and haematoxylin),"[1]; samples treated for two months, versus controls",net increase
same,histological state of the cultured tissue,[1]; short term (7 days) up to two months of culture,"trophic, vital and active"
same,cases in which pain and palpation fell,bilateral joint changes; [2],100%
same,cases with clinical improvement,bilateral joint changes; [2],70%
same,cases with increased ROM (Range of Motion),bilateral joint changes; [2],90%
same,tolerance,"bilateral joint changes; dog, in vivo",optimum tolerance
